US11661426B2, “Imidazole-containing inhibitors of ALK2 kinase” (BioCryst Pharmaceuticals, Inc., priority 2017, dated 2023)
pIC50: −log10 of the molar value.

Target: ALK2 (Homo sapiens (Human), UniProt Q04771)
Experiment: ALK2 inhibition, LanthaScreen Eu Kinase Binding Assay (ThermoFisher Scientific / Life Technologies)
Details: read-out: Measured Ki (IC50) Value for Compounds: IC50
Protocol: Biochemical assays to measure the inhibitory effects of the compounds were performed by ThermoFisher Scientific (Life Technologies). ALK2 inhibition was tested using LanthaScreen™ Eu Kinase Binding Assay screening protocol.

Chain of ALK2 (Q04771 21-509): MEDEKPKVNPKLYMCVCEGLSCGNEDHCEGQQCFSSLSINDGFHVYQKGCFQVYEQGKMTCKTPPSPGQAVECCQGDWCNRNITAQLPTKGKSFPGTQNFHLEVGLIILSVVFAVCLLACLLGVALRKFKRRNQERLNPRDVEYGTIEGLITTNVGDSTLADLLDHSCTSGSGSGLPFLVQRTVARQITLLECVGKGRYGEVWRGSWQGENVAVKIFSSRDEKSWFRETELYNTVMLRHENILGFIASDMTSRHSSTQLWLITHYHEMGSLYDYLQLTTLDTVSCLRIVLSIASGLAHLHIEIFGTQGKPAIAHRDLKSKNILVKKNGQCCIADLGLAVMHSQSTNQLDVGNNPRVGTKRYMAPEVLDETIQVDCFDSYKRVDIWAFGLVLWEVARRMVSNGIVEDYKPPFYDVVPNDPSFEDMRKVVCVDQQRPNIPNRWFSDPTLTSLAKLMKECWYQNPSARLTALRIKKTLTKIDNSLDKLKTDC

| pIC50 | Structure (SMILES) |
| --- | --- |
| > 7.00 | COc1cc(-n2cnc(Nc3nc(N4CCC[C@H]4CO)c4sccc4n3)c2)cc(OC)c1OC [Compound 138b, (S)-(1-(2-((1-(3,4,5-trimethoxyphenyl)-1H-imidazol-4-yl)amino)thieno[3,2-d]pyrimidin-4-yl)pyrrolidin-2-yl)methanol] |
| 6.00 to 7.00 | COc1cc(-n2cnc(Nc3nc(N4CCC[C@H]4C(N)=O)c4sccc4n3)c2)cc(OC)c1OC [Compound 139b, (S)-1-(2-((1-(3,4,5-trimethoxyphenyl)-1H-imidazol-4-yl)amino)thieno[3,2-d]pyrimidin-4-yl)pyrrolidine-2-carboxamide] |
| > 7.00 | COc1cc(-n2cnc(Nc3nc(N4CCC[C@H]4CO)nc4cccnc34)c2)cc(OC)c1OC [Compound 140c, (S)-(1-(4-((1-(3,4,5-trimethoxyphenyl)-1H-imidazol-4-yl)amino)pyrido[3,2-d]pyrimidin-2-yl)pyrrolidin-2-yl)methanol] |
| > 7.00 | COc1cc(-n2cnc(Nc3nc(N4CCC[C@H]4CO)nc4c3ccn4S(=O)(=O)c3ccc(C)cc3)c2)cc(OC)c1OC [Compound 141c, (S)-(1-(7-tosyl-4-((1-(3,4,5-trimethoxyphenyl)-1H-imidazol-4-yl)amino)-7H-pyrrolo[2,3-d]pyrimidin-2-yl)pyrrolidin-2-yl)methanol] |
| > 7.00 | COc1cc(-n2cnc(Nc3nc(N4CCC[C@H]4CO)nc4[nH]ccc34)c2)cc(OC)c1OC [Compound 141d, (S)-(1-(4-((1-(3,4,5-trimethoxyphenyl)-1H-imidazol-4-yl)amino)-7H-pyrrolo[2,3-d]pyrimidin-2-yl)pyrrolidin-2-yl)methanol] |
| > 7.00 | COc1cc(-n2cnc(Nc3nc(N4CCC[C@H]4C(N)=O)nc4c3ccn4S(=O)(=O)c3ccc(C)cc3)c2)cc(OC)c1OC [Compound 142a, (S)-1-(7-tosyl-4-((1-(3,4,5-trimethoxyphenyl)-1H-imidazol-4-yl)amino)-7H-pyrrolo[2,3-d]pyrimidin-2-yl)pyrrolidine-2-carboxamide] |
| > 7.00 | COc1cc(-n2cnc(Nc3nc(N4CCC[C@H]4C(N)=O)nc4[nH]ccc34)c2)cc(OC)c1OC [Compound 142b, (S)-1-(4-((1-(3,4,5-trimethoxyphenyl)-1H-imidazol-4-yl)amino)-7H-pyrrolo[2,3-d]pyrimidin-2-yl)pyrrolidine-2-carboxamide] |
| > 7.00 | COc1cc(-n2cnc(Nc3nc(N4CCC[C@H]4C(N)=O)nc4c(OC(C)C)cccc34)c2)cc(OC)c1OC [Compound 143h, (S)-1-(8-isopropoxy-4-((1-(3,4,5-trimethoxyphenyl)-1H-imidazol-4-yl)amino)quinazolin-2-yl)pyrrolidine-2-carboxamide] |
| > 7.00 | COc1cc(-n2cnc(Nc3nc(N4CCC[C@H]4CO)nc4c(OC(C)C)cccc34)c2)cc(OC)c1OC [Compound 144a, (S)-(1-(8-isopropoxy-4-((1-(3,4,5-trimethoxyphenyl)-1H-imidazol-4-yl)amino)quinazolin-2-yl)pyrrolidin-2-yl)methanol] |
| > 7.00 | COc1cc(-n2cnc(Nc3nc(N4CCC[C@H]4CO)nc4cc(OC(C)C)ccc34)c2)cc(OC)c1OC [Compound 145h, (S)-(1-(7-isopropoxy-4-((1-(3,4,5-trimethoxyphenyl)-1H-imidazol-4-yl)amino)quinazolin-2-yl)pyrrolidin-2-yl)methanol] |
| > 7.00 | COc1cc(-n2cnc(Nc3nc(-c4cccc(C(N)=O)c4)nc4sccc34)c2)cc(OC)c1OC [Compound 146a, 3-(4-((1-(3,4,5-trimethoxyphenyl)-1H-imidazol-4-yl)amino)thieno[2,3-d]pyrimidin-2-yl)benzamide] |
| < 6.00 | COc1cc(-n2cnc(Nc3nc(N4CCC[C@H]4C(N)=O)c4cccn4n3)c2)cc(OC)c1OC [Compound 147b, (S)-1-(2-((1-(3,4,5-trimethoxyphenyl)-1H-imidazol-4-yl)amino)pyrrolo[2,1-f][1,2,4]triazin-4-yl)pyrrolidine-2-carboxamide] |
| > 7.00 | COc1cc(-n2cnc(Nc3nc(N4CCC[C@H]4CO)c4occc4n3)c2)cc(OC)c1OC [Compound 148b, (S)-(1-(2-((1-(3,4,5-trimethoxyphenyl)-1H-imidazol-4-yl)amino)furo[3,2-d]pyrimidin-4-yl)pyrrolidin-2-yl)methanol] |
| 6.00 to 7.00 | COc1cc(-n2cnc(Nc3nc(N4CCC[C@H]4CO)nc4c3CN(Cc3ccccc3)CC4)c2)cc(OC)c1OC [Compound 149c, (S)-(1-(6-benzyl-4-((1-(3,4,5-trimethoxyphenyl)-1H-imidazol-4-yl)amino)-5,6,7,8-tetrahydropyrido[4,3-d]pyrimidin-2-yl)pyrrolidin-2-yl)methanol] |
| > 7.00 | COc1cc(-n2cnc(Nc3nc(N4CCC[C@H]4CO)c4ncsc4n3)c2)cc(OC)c1OC [Compound 150c, (S)-(1-(5-((1-(3,4,5-trimethoxyphenyl)-1H-imidazol-4-yl)amino)thiazolo[5,4-d]pyrimidin-7-yl)pyrrolidin-2-yl)methanol] |
| 6.00 to 7.00 | COc1cc(-n2cnc(Nc3nc(N4CCC[C@H]4C(N)=O)c4occc4n3)c2)cc(OC)c1OC [Compound 151b, (S)-1-(2-((1-(3,4,5-trimethoxyphenyl)-1H-imidazol-4-yl)amino)furo[3,2-d]pyrimidin-4-yl)pyrrolidine-2-carboxamide] |
| 6.00 to 7.00 | COc1cc(-n2cnc(Nc3nc(N4CCC[C@H]4C(N)=O)nc4c3CN(Cc3ccccc3)CC4)c2)cc(OC)c1OC [Compound 152a, (S)-1-(6-benzyl-4-(1-(3,4,5-trimethoxyphenyl)-1H-imidazol-4-ylamino)-5,6,7,8-tetrahydropyrido[4,3-d]pyrimidin-2-yl)pyrrolidine-2-carboxamide] |
| > 7.00 | COc1cc(-n2cnc(Nc3nc(N4CCC[C@H]4CO)nc4c3CCN(Cc3ccccc3)C4)c2)cc(OC)c1OC [Compound 153c, (S)-(1-(7-benzyl-4-((1-(3,4,5-trimethoxyphenyl)-1H-imidazol-4-yl)amino)-5,6,7,8-tetrahydropyrido[3,4-d]pyrimidin-2-yl)pyrrolidin-2-yl)methanol] |
| > 7.00 | COc1cc(-n2cnc(Nc3nc(N4CCC[C@H]4C(N)=O)nc4c3CCN(Cc3ccccc3)C4)c2)cc(OC)c1OC [Compound 154a, (S)-1-(7-benzyl-4-((1-(3,4,5-trimethoxyphenyl)-1H-imidazol-4-yl)amino)-5,6,7,8-tetrahydropyrido[3,4-d]pyrimidin-2-yl)pyrrolidine-2-carboxamide] |
| > 7.00 | COc1cc(-n2cnc(Nc3nc(N4CCC[C@H]4C(N)=O)nc4sccc34)c2)cc(OC)c1OC [Compound 155a, (S)-1-(4-((1-(3,4,5-trimethoxyphenyl)-1H-imidazol-4-yl)amino)thieno[2,3-d]pyrimidin-2-yl)pyrrolidine-2-carboxamide] |
| > 7.00 | COc1cc(-n2cnc(Nc3nc(N4CCCC4)nn4cccc34)c2)cc(OC)c1OC [Compound 156a, 2-(pyrrolidin-1-yl)-N-(1-(3,4,5-trimethoxyphenyl)-1H-imidazol-4-yl)pyrrolo[2,1-f][1,2,4]triazin-4-amine] |
| > 7.00 | COc1cc(-n2cnc(Nc3nc(-c4ccccc4C(N)=O)nc4sccc34)c2)cc(OC)c1OC [Compound 157a, 2-(4-((1-(3,4,5-trimethoxyphenyl)-1H-imidazol-4-yl)amino)thieno[2,3-d]pyrimidin-2-yl)benzamide] |
